Test results as given in the supplement of paper PMC10307832.

Tests used:
Assay in all cases: relative viability (nuclei count vs DMSO), 5 days (fraction); higher = more cells survive
Everolimus = compound: CO[C@H]1C[C@@H]2CC[C@@H](C)[C@@](O)(O2)C(=O)C(=O)N2CCCC[C@H]2C(=O)O[C@H]([C@H](C)C[C@@H]2CC[C@@H](OCCO)[C@H](OC)C2)CC(=O)[C@H](C)/C=C(\C)[C@@H](O)[C@@H](OC)C(=O)[C@H](C)C[C@H](C)/C=C/C=C/C=C/1C [Everolimus]
Procedure, shortened: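 Nuclei counted with MetaXpress define viability as the ratio of treated to vehicle wells, given as a median across plates. The lung cancer cell lines were in 1536-well plates, pinned with five √10-spaced library-drug doses and imaged at 4× after 5 days and Hoechst staining. Plates passed with control CV below 25% and at least one doubling.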

Everolimus + Phenformin = compound: CO[C@H]1C[C@@H]2CC[C@@H](C)[C@@](O)(O2)C(=O)C(=O)N2CCCC[C@H]2C(=O)O[C@H]([C@H](C)C[C@@H]2CC[C@@H](OCCO)[C@H](OC)C2)CC(=O)[C@H](C)/C=C(\C)[C@@H](O)[C@@H](OC)C(=O)[C@H](C)C[C@H](C)/C=C/C=C/C=C/1C [Everolimus] + N=C(N)NC(=N)NCCc1ccccc1 [Phenformin] (partner 250 µM)
Procedure, shortened: (§1)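 Lung cancer cell lines were seeded in 1536-well plates and dosed by pin tool the next day, with either a single drug or a fixed anchor-drug dose combined with five library-drug doses (not always all listed) spaced in √10 steps. Five days later, one step fixed the cells and stained their nuclei (final 0.05% Triton X-100, 1% formaldehyde, 1 ug/ml Hoechst), and nuclei were counted on 4× images. Relative viability is the nuclei count in treated wells divided by the count in vehicle wells, and each value is the median of duplicate plates.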

Everolimus + Olaparib = compound: CO[C@H]1C[C@@H]2CC[C@@H](C)[C@@](O)(O2)C(=O)C(=O)N2CCCC[C@H]2C(=O)O[C@H]([C@H](C)C[C@@H]2CC[C@@H](OCCO)[C@H](OC)C2)CC(=O)[C@H](C)/C=C(\C)[C@@H](O)[C@@H](OC)C(=O)[C@H](C)C[C@H](C)/C=C/C=C/C=C/1C [Everolimus] + O=C(c1cc(Cc2n[nH]c(=O)c3ccccc23)ccc1F)N1CCN(C(=O)C2CC2)CC1 [Olaparib] (partner 8 µM)
Procedure, shortened: as §1

Everolimus + Trametinib = compound: CO[C@H]1C[C@@H]2CC[C@@H](C)[C@@](O)(O2)C(=O)C(=O)N2CCCC[C@H]2C(=O)O[C@H]([C@H](C)C[C@@H]2CC[C@@H](OCCO)[C@H](OC)C2)CC(=O)[C@H](C)/C=C(\C)[C@@H](O)[C@@H](OC)C(=O)[C@H](C)C[C@H](C)/C=C/C=C/C=C/1C [Everolimus] + CC(=O)Nc1cccc(-n2c(=O)n(C3CC3)c(=O)c3c(Nc4ccc(I)cc4F)n(C)c(=O)c(C)c32)c1 [Trametinib] (partner 0.02 µM)
Procedure, shortened: as §1

Row | Cell Line | relative viability (Everolimus; 0.01 µM) | relative viability (Everolimus; 0.03162 µM) | relative viability (Everolimus; 0.1 µM) | relative viability (Everolimus; 0.3162 µM) | relative viability (Everolimus; 1 µM) | relative viability (Everolimus + Phenformin; first compound 0.01 µM) | relative viability (Everolimus + Phenformin; first compound 0.03162 µM) | relative viability (Everolimus + Phenformin; first compound 0.1 µM) | relative viability (Everolimus + Phenformin; first compound 0.3162 µM) | relative viability (Everolimus + Phenformin; first compound 1 µM) | relative viability (Everolimus + Olaparib; first compound 0.01 µM) | relative viability (Everolimus + Olaparib; first compound 0.03162 µM) | relative viability (Everolimus + Olaparib; first compound 0.1 µM) | relative viability (Everolimus + Olaparib; first compound 0.3162 µM) | relative viability (Everolimus + Olaparib; first compound 1 µM) | relative viability (Everolimus + Trametinib; first compound 0.01 µM) | relative viability (Everolimus + Trametinib; first compound 0.03162 µM) | relative viability (Everolimus + Trametinib; first compound 0.1 µM) | relative viability (Everolimus + Trametinib; first compound 0.3162 µM) | relative viability (Everolimus + Trametinib; first compound 1 µM)
1 | LCLC-97TM1 | 0.771 | 0.82 | 0.709 | 0.892 | 0.775 | 0.46 | 0.513 | 0.483 | 0.353 | 0.437 | 0.356 | 0.317 | 0.291 | 0.269 | 0.434 | 0.153 | 0.164 | 0.126 | 0.155 | 0.147
2 | HARA | 0.858 | 0.999 | 0.784 | 0.87 | 0.78 | 0.412 | 0.489 |  | 0.419 | 0.466 | 0.78 | 0.762 | 0.86 | 0.84 | 0.471 | 0.425 | 0.394 | 0.346 | 0.559 | 0.339
3 | HCC-78 | 0.905 | 0.919 | 0.659 | 0.858 | 0.644 | 0.504 | 0.462 | 0.451 | 0.564 | 0.626 | 0.827 | 0.43 | 0.657 | 0.717 | 0.678 | 0.637 | 0.56 | 0.493 | 0.529 | 0.47
4 | NCI-H1666 | 0.952 | 0.858 | 0.853 | 0.886 | 0.898 | 0.555 | 0.575 | 0.617 | 0.577 | 0.539 | 0.725 | 0.779 | 0.781 | 0.731 | 0.823 | 0.832 | 0.911 | 0.867 | 0.851 | 0.705
5 | NCI-H2347 | 0.928 | 0.95 | 0.795 | 0.887 | 0.75 | 0.388 | 0.353 | 0.351 | 0.384 | 0.26 | 0.565 | 0.54 | 0.527 | 0.525 | 0.505 | 0.266 | 0.337 | 0.244 | 0.261 | 0.286
6 | NCI-H838 | 0.603 | 0.561 | 0.468 | 0.516 | 0.51 | 0.331 | 0.355 | 0.267 | 0.313 | 0.363 | 0.493 | 0.484 | 0.494 | 0.479 | 0.403 | 0.288 | 0.267 | 0.278 | 0.263 | 0.28
7 | NCI-H2023 | 0.545 | 0.501 | 0.458 | 0.457 | 0.378 | 0.309 | 0.375 | 0.343 | 0.277 | 0.266 | 0.276 | 0.294 | 0.253 | 0.256 | 0.296 | 0.259 | 0.216 | 0.247 | 0.187 | 0.225
